Values after ≈ are worked out from the molar mass of the structure shown. Active and inactive are the calls of the source. The rule behind the calls is not given here.
What was measured:
[1] = Inhibition of bacterial NDM-1 using CDC-1 as substrate incubated for 30 mins; design: species or system Bacteria
[2] = Inhibition of bacterial IMP-1 using CDC-1 as substrate incubated for 30 mins; design: species or system Bacteria
[3] = Inhibition of bacterial VIM-27 using CDC-1 as substrate incubated for 30 mins; design: species or system Bacteria
[4] = Inhibition of bacterial NDM-12 using CDC-1 as substrate incubated for 30 mins; design: species or system Bacteria
HEK293 [5] = test: Cytotoxicity against human HEK293 cells at 50 uM and measured by Calcien AM staining method; assay type: toxicity, cell-based; details: hek293, 50 µM
[6] = Inhibition of bacterial NDM-3 using CDC-1 as substrate incubated for 30 mins; design: species or system Bacteria
HEK293 [7] = test: Cytotoxicity against human HEK293 cells at 50 uM and measured by propidium iodide (PI) staining method; assay type: toxicity, cell-based; details: hek293, 50 µM
[8] = Competitive inhibition of bacterial NDM-1 using CDC-1 as substrate and measured by Dixon plot analysis; design: species or system Bacteria
Escherichia coli [9] = test: Potentiation of meropenem-induced antibacterial activity against Escherichia coli expressing NDM-1 at 8 ug/ml assessed as meropenem MIC by broth microdilution method; assay type: functional; details: dose 8 µg/ml
[10] = Inhibition of bacterial NDM-4 using CDC-1 as substrate incubated for 30 mins; design: species or system Bacteria
Escherichia coli [11] = test: Potentiation of meropenem-induced antibacterial activity against Escherichia coli expressing NDM-1 at 0.25 ug/ml assessed as meropenem MIC by broth microdilution method; assay type: functional; details: dose 0.25 µg/ml
Bacteria = test: Reversible inhibition of bacterial NDM-1 at 10 uM incubated for 30 mins
HEK293 [12] = test: Cytotoxicity against human HEK293 cells at 1 to 100 uM and measured by MTT assay; assay type: toxicity, cell-based; details: hek293, 100 µM, dose 1-100 µM
[13] = Inhibition of bacterial NDM-13 using CDC-1 as substrate incubated for 30 mins; design: species or system Bacteria
Escherichia coli [14] = test: Antibacterial activity against Escherichia coli expressing NDM-1 measured by broth microdilution method; assay type: functional

SMILES	IC50 [1] [µM]	IC50 [2] [µM]	IC50 [3] [µM]	other results
O=C(O)C1=C(CSC(=O)c2ccccc2)CS[C@@H]2CC(=O)N12	> 50			
O=C(O)C1=C(CSc2nc3ccccc3s2)CS[C@@H]2CC(=O)N12	> 50			
CC(C)O[C@H]1C(=O)N2C(C(=O)O)=C(CSC(=O)c3ccccc3)CS[C@H]12	1.4			
CO[C@H]1C(=O)N2C(C(=O)O)=C(CSC(=O)c3ccccc3)CS(=O)(=O)[C@H]12	> 50			
CO[C@H]1C(=O)N2C(C(=O)O)=C(CSc3nncs3)CS[C@H]12	1.6	15	8.1	
C[C@@H](O)[C@H]1C(=O)N2C(C(=O)O)=C(S[C@@H]3CN[C@H](C(=O)N(C)C)C3)[C@H](C)[C@H]12 [MEROPENEM]				MIC (Escherichia coli [14]): 0.031 µg/mL (≈ 0.0808 µM)
CO[C@H]1C(=O)N2C(C(=O)O)=C(CSc3ccccc3)CS[C@H]12	2	7.4	8.1	
CO[C@@]1(NC(=O)Cc2ccccc2)C(=O)N2C(C(=O)O)=C(CSC(=O)c3ccccc3)CS[C@@H]21	9.6			
O=C(Cc1ccccc1)N[C@@H]1C(=O)N2C(C(=O)O)=C(CSC(=O)c3ccccc3)CS[C@H]12	9.4			
CCSCC1=C(C(=O)O)N2C(=O)[C@H](OC)[C@H]2SC1	1.2			
CO[C@H]1C(=O)N2C(C(=O)O)=C(CSC(=O)c3ccccc3)CS[C@H]12	> 50	7.9	9.1	
CO[C@H]1C(=O)N2C(C(=O)O)=C(C[Se]c3ccccc3)CS[C@H]12	0.19	6.6	6	
CO[C@H]1C(=O)N2C(C(=O)O)=C(C)CS[C@H]12	> 50			
CCO[C@H]1C(=O)N2C(C(=O)O)=C(CSC(=O)c3ccccc3)CS[C@H]12	7.4	4.6	3.6	

Now from value to compound, other results behind:

IC50 [1] [µM]	IC50 [2] [µM]	IC50 [3] [µM]	SMILES	other results
0.2	8.4	5.8	CO[C@H]1C(=O)N2C(C(=O)O)=C(CSc3ccc(NC(C)=O)cc3)CS[C@H]12	
0.13	8	6	CO[C@H]1C(=O)N2C(C(=O)O)=C(CSc3nc4ccccc4s3)CS[C@H]12	IC50 [4]: 0.2 µM; Activity (HEK293 [5]): Non-Toxic; IC50 [6]: 0.19 µM; Activity (HEK293 [7]): Non-Toxic; Ki [8]: 0.21 µM; MIC (Escherichia coli [9]): 16 µg/mL; IC50 [10]: 0.21 µM; MIC (Escherichia coli [11]): 32 µg/mL; inhibition (Bacteria): Active; Activity (HEK293 [12]): Non-Toxic; IC50 [13]: 0.16 µM
0.46			O=C(O)C1=C(CSC(=O)c2ccccc2)CS[C@@H]2[C@@H](O)C(=O)N12	
0.54			O=C(O)CN(CCN(CC(=O)O)CC(=O)O)CC(=O)O [EDETIC ACID]	
0.63	8.8	8.6	CO[C@H]1C(=O)N2C(C(=O)O)=C(CSc3ncccn3)CS[C@H]12	
0.76	15	1	CO[C@H]1C(=O)N2C(C(=O)O)=C(CSc3nc4ccc([N+](=O)[O-])cc4s3)CS[C@H]12	
0.63	20	5.5	CO[C@H]1C(=O)N2C(C(=O)O)=C(CSc3nnnn3C)CS[C@H]12	
0.22			O=C(Cc1ccccc1)N[C@H]1C(=O)N2C(C(=O)O)=C(CSC(=O)c3ccccc3)CS[C@H]12	
0.5	5.5	7.3	CO[C@H]1C(=O)N2C(C(=O)O)=C(CSc3ccc(C(F)(F)F)cc3)CS[C@H]12	
0.99			CO[C@H]1C(=O)N2C(C(=O)O)=C(COC(C)=O)CS[C@H]12	
0.62			CCOC(=O)CSCC1=C(C(=O)O)N2C(=O)[C@H](OC)[C@H]2SC1	
0.25			CO[C@H]1C(=O)N2C(C(=O)O)=C(CSC(=O)c3ccccc3)C[S+]([O-])[C@H]12 (stereo not given in full)	
0.31	0.8	5.2	CCS[C@H]1C(=O)N2C(C(=O)O)=C(CSC(=O)c3ccccc3)CS[C@H]12	
0.55	16	13	CO[C@H]1C(=O)N2C(C(=O)O)=C(CSc3nnc(C)s3)CS[C@H]12	
